Assay results reported in paper PMC7665585, “Antidepressive effect of an inward rectifier K^+ channel blocker peptide, tertiapin-RQ” (PLoS ONE, 2020).
Bridge positions count the residues as written; N and C are the ends. Peptide text beside a SMILES is read from it.

Legend:
Male ICR mice [1] = assay: Tail suspension test (TST); type: in vivo, mouse; conditions: 750 pmole i.c.v., 30 min before test, 5 min recording
Protocol: We performed mouse behavioral experiments in accordance with our previous study. Male ICR mice (n = 199 in total) aged 5 weeks old were purchased from Shimizu Laboratory Supplies (Kyoto, Japan) and maintained in an animal facility for 7–12 days. They had free access to food and water and were kept in a 12-h light/dark cycle (08:00–20:00). Experiments were carried out between 11:00 and 17:00 in a quiet and air-conditioned experimental room, to which mice were habituated for 30–60 min before each experiment. Animal experiments were performed in accordance with the guidelines of the Physiological Society of Japan and were approved by the Committee for Animal Experiments of Kurashiki University of Science and the Arts. Peptides were dissolved in phosphate-buffered saline (PBS). Peptides were injected intracerebroventricularly (i.c.v.) 30 min before behavioral tests (typically 5 μL/mouse), according to a previous study. The mouse was placed into an anesthetizing jar, to which isoflurane (0.2 mL) was added immediately before. After confirming that the mouse was deeply anesthetized we injected the peptide into the right cerebral ventricle over 30 seconds and the injection needle was kept for 1 min after the injection (i.c.v. coordinates: 0 mm caudal to bregma, 1.0 mm lateral to the midline, and 3.5 mm below the skull). The mouse was placed in a cage set on a heating pad (approximately 33°C) for a few minutes until it spontaneously started to move, and then it was put back into its home cage. Each animal was used only once, except for the wheel running test, which was carried out immediately after the elevated plus-maze.
The tail suspension test (TST) was performed in accordance with the method reported previously. The mouse was hung on a hook using adhesive tape placed 2 cm from the extremity of its tail 50 cm above a table. The amount of time spent immobile was recorded for 5 min.

mouse GIRK1/4 = target: T1, mouse GIRK1/4 (Mus musculus, UniProt P48545+P63250); assay: Whole-cell patch-clamp of GIRK1/4 in transfected 293T cells; type: cell-based; conditions: 293T cells transiently expressing mouse GIRK1/4, high K+ Tyrode solution (Fig 7); read-out: IC50, GIRK1/4 conductance
T1 construct: expressed in transfected cells; host or cells: 293T cells, transient calcium phosphate transfection, pCMV6 plasmid
T1 sequence (P63250 1-501): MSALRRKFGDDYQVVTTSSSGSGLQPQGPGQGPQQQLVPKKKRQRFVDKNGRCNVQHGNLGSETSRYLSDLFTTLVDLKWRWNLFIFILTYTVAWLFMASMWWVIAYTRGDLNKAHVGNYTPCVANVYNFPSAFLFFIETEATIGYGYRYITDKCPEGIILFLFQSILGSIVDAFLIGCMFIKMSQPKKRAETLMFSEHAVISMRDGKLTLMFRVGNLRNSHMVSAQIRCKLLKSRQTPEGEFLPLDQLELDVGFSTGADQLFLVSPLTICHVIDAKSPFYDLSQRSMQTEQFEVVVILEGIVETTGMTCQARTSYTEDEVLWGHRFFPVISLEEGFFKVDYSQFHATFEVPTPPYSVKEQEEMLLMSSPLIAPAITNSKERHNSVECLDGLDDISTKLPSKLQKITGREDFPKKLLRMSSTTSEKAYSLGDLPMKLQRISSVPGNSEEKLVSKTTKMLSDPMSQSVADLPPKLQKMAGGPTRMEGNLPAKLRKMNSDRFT
T1 sequence (P48545 1-419): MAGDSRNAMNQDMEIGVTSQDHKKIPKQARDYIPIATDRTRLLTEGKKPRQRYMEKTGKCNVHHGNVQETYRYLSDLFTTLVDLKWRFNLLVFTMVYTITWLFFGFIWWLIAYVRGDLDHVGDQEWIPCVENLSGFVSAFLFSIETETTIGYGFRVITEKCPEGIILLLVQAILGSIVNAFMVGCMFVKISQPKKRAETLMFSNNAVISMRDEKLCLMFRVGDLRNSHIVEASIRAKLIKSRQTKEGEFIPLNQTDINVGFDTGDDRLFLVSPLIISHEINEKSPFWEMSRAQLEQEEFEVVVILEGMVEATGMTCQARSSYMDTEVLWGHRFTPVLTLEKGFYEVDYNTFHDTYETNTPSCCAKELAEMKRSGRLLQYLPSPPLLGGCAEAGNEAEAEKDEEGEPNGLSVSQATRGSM
Source text: The cDNAs for rat ROMK and mouse GIRK1, 2, and 4 were generously donated by Drs Mikio Hayashi (Kansai Medical University) and David Weaver (Vanderbilt University). The ROMK channels were stably expressed by a cell line, 208–4, which was transduced with lentiviral vectors coexpressing the channel and green fluorescent protein (GFP) as described previously. The GIRK genes, cloned in a pCMV6 plasmid (Origene Technologies Inc, Rockville, MD), were transiently expressed in 293T cells with calcium phosphate transfection. GIRK channel currents were recorded 24 h after transfection.
Cells grown on small cover glasses (3 × 18 mm) were placed in a recording chamber. Whole-cell currents were recorded in Tyrode solution using an Axopatch 200B amplifier (Axon Instruments, Foster City, CA) at 25°C. Tyrode solution contained (in mM): NaCl 140, KCl 5.4, NaH2PO4 0.33, CaCl2 2, MgCl2 1, HEPES 5, and glucose 5.5 (pH 7.4 adjusted with NaOH). […] Whole-cell currents were recorded 60 sec after the peptide application and those from 100 to 300 msec of the step pulses were averaged. […] Whole-cell conductance was calculated as the slope of the current-voltage (I-V) relationship from -140 mV to -100 mV and normalized to the initial value (0 μM TPN), in which BaCl2-resistant current was subtracted and indicted as a percentage.

Male ICR mice [2] = assay: Balance beam test; type: in vivo, mouse; conditions: i.c.v.; 10 mm and 6 mm beams, central 60 cm
Protocol: We performed mouse behavioral experiments in accordance with our previous study. Male ICR mice (n = 199 in total) aged 5 weeks old were purchased from Shimizu Laboratory Supplies (Kyoto, Japan) and maintained in an animal facility for 7–12 days. They had free access to food and water and were kept in a 12-h light/dark cycle (08:00–20:00). Experiments were carried out between 11:00 and 17:00 in a quiet and air-conditioned experimental room, to which mice were habituated for 30–60 min before each experiment. Animal experiments were performed in accordance with the guidelines of the Physiological Society of Japan and were approved by the Committee for Animal Experiments of Kurashiki University of Science and the Arts. Peptides were dissolved in phosphate-buffered saline (PBS). Peptides were injected intracerebroventricularly (i.c.v.) 30 min before behavioral tests (typically 5 μL/mouse), according to a previous study. The mouse was placed into an anesthetizing jar, to which isoflurane (0.2 mL) was added immediately before. […]
Motor coordination was assessed by measuring the ability to traverse a narrow beam to reach a familiar cage. […] The time required to cross the central 60 cm of the beam was measured.

| SMILES | immobile time in TST (Male ICR mice [1]) | IC50 (mouse GIRK1/4) [µM] | time required to cross the beam (Male ICR mice [2]) |
| --- | --- | --- | --- |
| CC[C@H](C)[C@@H]1NC(=O)[C@H](CCCNC(=N)N)NC(=O)[C@H](CC(N)=O)NC(=O)[C@@H]2CSSC[C@@H](C(=O)NCC(=O)N[C@@H](CCCCN)C(=O)N[C@@H](CCCCN)C(N)=O)NC(=O)[C@H](CCCCN)NC(=O)[C@H](CCCCN)NC(=O)[C@H](Cc3c[nH]c4ccccc34)NC(=O)[C@H](CSSC[C@H](NC(=O)[C@H](CC(C)C)NC(=O)[C@H](C)N)C(=O)N[C@@H](CC(N)=O)C(=O)N2)NC(=O)[C@H](CCC(N)=O)NC(=O)[C@H](CC(C)C)NC(=O)[C@@H]2CCCN2C(=O)[C@H]([C@@H](C)CC)NC(=O)[C@H]([C@@H](C)CC)NC1=O [Peptide 3, TPN-LQ] (H-ALCNCNRIIIPLQCWKKCGKK-NH2; disulfide 3-14, 5-18; N-terminus and C-terminus assumed) | decreased the immobile time | – | – |
| CC[C@H](C)[C@@H]1NC(=O)[C@H](CCCNC(=N)N)NC(=O)[C@H](CCCNC(=N)N)NC(=O)[C@H](CC(N)=O)NC(=O)[C@@H]2CSSC[C@@H](C(=O)NCC(=O)N[C@@H](CCCCN)C(=O)N[C@@H](CCCCN)C(N)=O)NC(=O)[C@H](CCCCN)NC(=O)[C@H](CCCCN)NC(=O)[C@H](Cc3c[nH]c4ccccc34)NC(=O)[C@H](CSSC[C@H](NC(=O)[C@H](CC(C)C)NC(=O)[C@H](C)N)C(=O)N[C@@H](CC(N)=O)C(=O)N2)NC(=O)[C@H](CCC(N)=O)NC(=O)[C@H](Cc2c[nH]cn2)NC(=O)[C@@H]2CCCN2C(=O)[C@H]([C@@H](C)CC)NC1=O [Peptide 2, TPN-RQ] (H-ALCNCNRRIIPHQCWKKCGKK-NH2; disulfide 3-14, 5-18) | – | 1.25 | longer |
